Source: ChEMBL document CHEMBL4819022, “Discovery of JNJ-63576253: A Clinical Stage Androgen Receptor Antagonist for F877L Mutant and Wild-Type Castration-Resistant Prostate Cancer (mCRPC)” (J Med Chem, 2021)
Activity calls are given as the source filed them. The rule behind the calls is not given here.

What was measured:
[1] = molecular target: T1, Androgen receptor (Rattus norvegicus) (UniProt P15207); conditions: Sprague-Dawley, dose 30.0 mg/kg, time 10.0 day
T1 sequence (whole entry): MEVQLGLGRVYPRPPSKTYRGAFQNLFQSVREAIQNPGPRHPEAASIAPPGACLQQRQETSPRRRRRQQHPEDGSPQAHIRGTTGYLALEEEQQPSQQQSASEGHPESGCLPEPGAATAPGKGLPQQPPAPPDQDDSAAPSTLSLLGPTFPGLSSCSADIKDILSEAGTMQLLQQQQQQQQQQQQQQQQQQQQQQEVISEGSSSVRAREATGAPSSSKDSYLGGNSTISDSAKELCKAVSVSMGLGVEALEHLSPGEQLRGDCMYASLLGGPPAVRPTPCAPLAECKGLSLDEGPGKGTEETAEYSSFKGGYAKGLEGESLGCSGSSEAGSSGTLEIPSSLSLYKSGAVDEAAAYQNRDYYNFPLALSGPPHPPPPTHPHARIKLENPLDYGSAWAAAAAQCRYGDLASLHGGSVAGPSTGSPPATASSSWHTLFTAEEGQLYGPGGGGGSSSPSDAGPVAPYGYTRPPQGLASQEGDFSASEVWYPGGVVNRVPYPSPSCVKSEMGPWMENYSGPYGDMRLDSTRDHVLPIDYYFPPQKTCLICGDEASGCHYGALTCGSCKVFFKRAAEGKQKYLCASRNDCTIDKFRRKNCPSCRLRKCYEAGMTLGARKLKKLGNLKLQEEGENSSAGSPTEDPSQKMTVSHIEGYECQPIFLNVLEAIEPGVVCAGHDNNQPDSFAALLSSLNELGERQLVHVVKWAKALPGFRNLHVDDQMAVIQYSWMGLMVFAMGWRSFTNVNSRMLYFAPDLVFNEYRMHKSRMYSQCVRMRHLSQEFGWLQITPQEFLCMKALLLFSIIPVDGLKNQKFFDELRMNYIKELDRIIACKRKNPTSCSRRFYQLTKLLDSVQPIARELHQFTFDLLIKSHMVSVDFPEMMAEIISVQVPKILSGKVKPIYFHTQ

[2] = molecular target: T1, Androgen receptor (Rattus norvegicus); conditions: Sprague-Dawley, dose 30.0 mg/kg, time 10.0 day; remark: listed apart in the source
[3] = molecular target: T1, Androgen receptor (Rattus norvegicus); conditions: Sprague-Dawley, dose 30.0 mg/kg, time 10.0 day; remark: listed apart in the source
VCaP = assay: Antiproliferative activity against human VCaP cells expressing wild-type androgen receptor assessed as reduction in cell viability incubated for 5 days in presence of R1881 by CellTiter-glo assay; assay type: functional, cell-based; conditions: 120 h
[4] = molecular target: T1, Androgen receptor (Rattus norvegicus); conditions: Sprague-Dawley, dose 30.0 mg/kg, time 10.0 day; remark: listed apart in the source
[5] = molecular target: T1, Androgen receptor (Rattus norvegicus); conditions: Sprague-Dawley, dose 30.0 mg/kg, time 10.0 day; remark: listed apart in the source
[6] = Clearance in CD1 mouse at 2 mg/kg, iv; assay type: ADME, organism-based; conditions: in vivo
[7] = test system: T2, Androgen receptor (Homo sapiens), P10275 [F877L]; assay: Antagonist activity at AR F877L mutant (unknown origin) transfected in human LNCAP cells cotransfected with ARE-LUC incubated for 20 to 24 hrs in presence of AR agonist R1881 by steady-glo luciferase reporter gene assay relative to control; assay type: cell-based; conditions: filed as antagonist, time 20-24 hrs
T2 sequence (whole entry): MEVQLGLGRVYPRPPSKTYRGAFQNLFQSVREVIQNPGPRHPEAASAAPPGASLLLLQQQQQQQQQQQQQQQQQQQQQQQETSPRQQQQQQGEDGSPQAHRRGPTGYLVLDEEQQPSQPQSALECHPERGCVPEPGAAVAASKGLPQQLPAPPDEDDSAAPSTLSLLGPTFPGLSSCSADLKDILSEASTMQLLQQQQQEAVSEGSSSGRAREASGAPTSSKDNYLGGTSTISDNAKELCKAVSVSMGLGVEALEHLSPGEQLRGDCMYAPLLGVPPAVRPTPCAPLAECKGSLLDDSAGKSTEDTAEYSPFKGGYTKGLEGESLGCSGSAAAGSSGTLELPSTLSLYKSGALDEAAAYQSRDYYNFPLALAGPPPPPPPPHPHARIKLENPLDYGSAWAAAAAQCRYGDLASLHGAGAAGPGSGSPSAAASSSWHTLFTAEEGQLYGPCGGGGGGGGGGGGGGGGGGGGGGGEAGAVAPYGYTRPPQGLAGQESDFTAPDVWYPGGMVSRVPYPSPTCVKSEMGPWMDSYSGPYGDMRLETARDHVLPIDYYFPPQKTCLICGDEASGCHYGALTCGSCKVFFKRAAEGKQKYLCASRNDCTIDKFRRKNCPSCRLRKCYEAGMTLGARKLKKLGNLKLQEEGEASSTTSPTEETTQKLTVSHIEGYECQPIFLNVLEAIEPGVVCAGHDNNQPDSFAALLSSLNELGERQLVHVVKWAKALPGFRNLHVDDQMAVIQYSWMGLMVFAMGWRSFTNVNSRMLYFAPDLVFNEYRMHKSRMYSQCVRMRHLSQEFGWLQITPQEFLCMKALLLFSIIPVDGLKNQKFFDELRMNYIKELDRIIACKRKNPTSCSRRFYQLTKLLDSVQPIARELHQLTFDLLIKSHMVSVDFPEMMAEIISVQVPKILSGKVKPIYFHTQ

[8] = test system: liver microsomes (Homo sapiens); assay: Half life in human liver microsomes
[9] = Apparent passive permeability from apical to basolateral side in MDCK-MDR1 cells in presence P-gp inhibitor; assay type: ADME, cell-based, Canis lupus familiaris; conditions: dog, MDCK-MDR1, with P-gp inhibitor (name and concentration not stated)
[10] = Volume of distribution at steady state in CD1 mouse at 2 mg/kg, iv; assay type: ADME, organism-based; conditions: in vivo, read-out: Vdss
[11] = AUC(0 to last) in CD1 mouse at 10 mg/kg, po; assay type: ADME, organism-based; set-up: route oral, time 0 - last, dose 10 mg/kg; conditions: CD1, mouse, in vivo
[12] = Oral bioavailability in CD1 mouse at 10 mg/kg; assay type: ADME, organism-based; conditions: CD1, mouse, in vivo
[13] = Cmax in CD1 mouse at 10 mg/kg, po; assay type: ADME, organism-based; set-up: route oral, dose 10 mg/kg; conditions: in vivo
[14] = Half life in CD1 mouse at 2 mg/kg, iv; assay type: ADME, organism-based; conditions: in vivo
Androgen receptor = Androgen receptor (Homo sapiens, UniProt P10275, F877L)
[15] = Drug metabolism in dog liver microsomes assessed as unchanged parent compound at 10 uM incubated for 60 mins in presence of glutathione by LC-MS/MS analysis; assay type: ADME, Canis lupus familiaris, Microsome; conditions: read-out: Drug metabolism
[16] = Drug metabolism in dog liver microsomes assessed as unchanged parent compound at 10 uM incubated for 60 mins in presence of glutathione and NADPH by LC-MS/MS analysis; assay type: ADME, Canis lupus familiaris, Microsome; conditions: read-out: Drug metabolism
LNCaP = assay: Antitumor activity against human LNCaP cells harboring AR F877L mutant xenografted in SCID mouse assessed as tumor growth inhibition at 30 mg/kg, po QD administered via gavage for 28 days and measured twice weekly relative to control; assay type: functional; conditions: time 28 day, read-out: TGI
[17] = Drug concentration in SCID mouse plasma xenografted with human LNCaP cells harboring AR F877L mutant at 30 mg/kg, po QD administered via gavage for 28 days; assay type: ADME, organism-based; conditions: time 28 day, read-out: Ct

| SMILES | inhibition [1] | inhibition [2] | inhibition [3] | IC50 (VCaP) [nM] | inhibition [4] | inhibition [5] | clearance [6] [mL/min/kg] | Imax [7] [%] | half-life [8] [h] | Papp A→B [9] [×10⁻⁶ cm/s] | Vd [10] [L/kg] | AUC(0-t) [11] [ng·h/mL] | bioavailability [12] [%] | Cmax [13] [nM] | half-life [14] [h] | EC50 (Androgen receptor) [nM] | remaining at 1 h, 10 µM [15] [%] | remaining at 1 h, 10 µM [16] [%] | inhibition in vivo at 30 mg/kg (LNCaP) [%] | concentration at […] [17] [ng/mL] |
| --- | --- | --- | --- | --- | --- | --- | --- | --- | --- | --- | --- | --- | --- | --- | --- | --- | --- | --- | --- | --- |
| CNC(=O)c1ccc(N2C(=S)N(c3ccc(C#N)c(C(F)(F)F)c3)C(=O)C2(C)C)cc1F [ENZALUTAMIDE] | Active | Active | Active | 149 | Active | Active |  |  |  |  |  |  |  |  |  |  |  |  |  |  |
| N#Cc1ncc(N2C(=O)C3(CCC3)N(c3ccc(OC4CCNCC4)nc3)C2=S)cc1Cl | Active | Active | Active | 250 | Active | Active | 25.4 | > 90 | > 3 | 11.5 | 6.92 | 6000 | 118 | 1880 | 4.1 |  |  |  |  |  |
| CN1CCC(Oc2ncc(N3C(=S)N(c4cnc(C#N)c(C(F)(F)F)c4)C(=O)C34CCC4)cn2)CC1 |  |  |  |  |  |  |  | > 90 |  |  |  |  |  |  |  |  |  |  |  |  |
| CN1CCC(Oc2ccc(N3C(=S)N(c4cnc(C#N)c(C(F)(F)F)c4)C(=O)C34CCC4)cn2)CC1 |  |  |  | 394 |  |  | 8.14 | > 90 | 2.88 | 16.2 | 7.69 | 10900 | 56 | 1300 | 12.5 |  |  |  |  |  |
| N#Cc1ncc(N2C(=O)C3(CCC3)N(c3ccc(OC4CCNCC4)cc3)C2=S)cc1Cl | Active | Active | Active | 503 | Active | Active | 26.7 | > 90 | > 3 | 12.2 | 8.47 | 4600 | 50 | 780 | 3.7 | 45 |  |  |  |  |
| N#Cc1ncc(N2C(=O)C3(CCC3)N(c3ccc(O)nc3)C2=S)cc1C(F)(F)F |  |  |  |  |  |  |  | > 90 |  |  |  |  |  |  |  |  | 100 | 100 |  |  |
| N#Cc1ncc(N2C(=O)C3(CCC3)N(c3cnc(OC4CCNCC4)nc3)C2=S)cc1C(F)(F)F |  |  |  |  |  |  |  | 67 |  |  |  |  |  |  |  |  |  |  |  |  |
| Cc1cc(N2C(=O)C3(CCC3)N(c3ccc(OC4CCNCC4)nc3)C2=S)cnc1C#N |  |  |  | 264 |  |  | 19.4 | > 90 | > 3 | 3.38 | 4.35 | 7800 | 92 | 1880 | 3 |  |  |  |  |  |
| N#Cc1ncc(N2C(=O)C3(CCC3)N(c3ccc(CN4CCNCC4)cc3)C2=S)cc1C(F)(F)F | inactive | inactive | inactive | 2780 | inactive | inactive | 18.2 | > 90 | > 3 | 6.31 | 16.8 | 8700 | 97 | 840 | 12.1 |  |  |  |  |  |
| N#Cc1ncc(N2C(=O)C3(CCC3)N(c3ccc(OC4CCNCC4)nc3)C2=S)cc1C(F)(F)F [TRC-253] | Active | Active | Active | 265 | Active | Active | 15 | > 90 | > 3 | 5.62 | 6.11 | 4900 | 45 | 660 | 5.99 |  | 100 | 98.8 | 87 | 1750 |
| N#Cc1ncc(N2C(=O)C3(CCC3)N(c3ccc(O)cc3)C2=S)cc1C(F)(F)F |  |  |  |  |  |  |  |  |  |  |  |  |  |  |  |  |  | 91.9 |  |  |
| COc1cc(N2C(=O)C3(CCC3)N(c3ccc(OC4CCN(C)CC4)cc3)C2=S)cnc1C#N | Active | Active | Active | 263 | Active | Active | 6.9 | > 90 | 1.9 |  | 3.7 | 20100 | 87 | 2800 | 7.8 | 649 |  |  |  |  |
